In the NIST ThermoML archive (doi:10.1016/j.fluid.2016.11.031):

Test: molar heat capacity at constant pressure
Conditions: Liquid, Flow calorimetry

C1C[C@@H]2[C@H]3CC[C@H](C3)[C@@H]2C1 [exo-tetrahydrodicyclopentadiene]
Conditions | molar heat capacity at constant pressure [J/K/mol]
323.34 K, 100 kPa | 219.49
323.34 K, 4000 kPa | 218.3
323.34 K, 5020 kPa | 218.14
323.35 K, 3070 kPa | 218.8
323.35 K, 6080 kPa | 217.34
323.37 K, 1030 kPa | 219.39
323.37 K, 2050 kPa | 218.99
333.16 K, 3990 kPa | 223.29
333.17 K, 5040 kPa | 223.42
333.17 K, 5990 kPa | 223.32
333.2 K, 100 kPa | 224.4
333.2 K, 1070 kPa | 224.39
333.2 K, 3000 kPa | 223.84
333.21 K, 2020 kPa | 224.41
343.01 K, 100 kPa | 230.29
343.03 K, 1090 kPa | 230.02
343.06 K, 2070 kPa | 229.6
343.06 K, 3060 kPa | 229
343.09 K, 4000 kPa | 229.5
343.09 K, 5030 kPa | 228.72
343.09 K, 6000 kPa | 229.08
353.59 K, 100 kPa | 234.98
353.59 K, 4080 kPa | 234.11
353.59 K, 5070 kPa | 234.17
353.6 K, 6090 kPa | 233.83
353.61 K, 1080 kPa | 234.61
353.61 K, 2010 kPa | 234.35
353.62 K, 3070 kPa | 234.12
363.48 K, 100 kPa | 240.37
363.53 K, 1070 kPa | 240.28
363.53 K, 2030 kPa | 240.09
363.53 K, 2990 kPa | 239.97
363.54 K, 4080 kPa | 239.88
363.54 K, 5000 kPa | 239.76
363.55 K, 6020 kPa | 239.67
383.58 K, 3060 kPa | 248.68
383.58 K, 4010 kPa | 248.49
383.59 K, 5070 kPa | 248.39
383.6 K, 100 kPa | 249.31
383.6 K, 1000 kPa | 248.82
383.6 K, 5990 kPa | 248.35
383.61 K, 2020 kPa | 248.8
403.36 K, 100 kPa | 260.34
403.36 K, 1020 kPa | 259.74
403.37 K, 2060 kPa | 259.23
403.38 K, 3040 kPa | 258.89
403.38 K, 4010 kPa | 257.41
403.39 K, 5000 kPa | 256.93
403.4 K, 6070 kPa | 256.62
423.2 K, 1020 kPa | 271.44
423.2 K, 2050 kPa | 270.28
423.2 K, 3010 kPa | 268.73
423.21 K, 100 kPa | 271.95
423.25 K, 4020 kPa | 267.73
423.26 K, 4980 kPa | 267.54
423.27 K, 6000 kPa | 266.96
443.11 K, 3110 kPa | 282.78
443.13 K, 2050 kPa | 283.43
443.14 K, 1030 kPa | 284.05
443.15 K, 240 kPa | 284.8
443.17 K, 4060 kPa | 282.05
443.18 K, 6050 kPa | 280.75
443.19 K, 5030 kPa | 281.38
463.16 K, 2040 kPa | 298.88
463.17 K, 230 kPa | 301.77
463.18 K, 1060 kPa | 300.31
463.19 K, 4070 kPa | 297.53
463.2 K, 3000 kPa | 299.41
463.21 K, 5010 kPa | 297.44
463.22 K, 6020 kPa | 296.56
483.31 K, 2050 kPa | 316.76
483.32 K, 3040 kPa | 315.54
483.37 K, 4030 kPa | 315.19
483.37 K, 6060 kPa | 314.11
483.38 K, 5080 kPa | 314.31
483.39 K, 1020 kPa | 319.24
483.42 K, 470 kPa | 321.27
503.28 K, 1020 kPa | 336.59
503.28 K, 2040 kPa | 334.35
503.28 K, 3050 kPa | 333.03
503.29 K, 4090 kPa | 330.6
503.29 K, 5070 kPa | 331.61
503.3 K, 480 kPa | 338.7
503.3 K, 6000 kPa | 331.5
523.44 K, 3010 kPa | 348.07
523.45 K, 1030 kPa | 352.98
523.45 K, 2060 kPa | 350.7
523.47 K, 500 kPa | 355.43
523.49 K, 5040 kPa | 345.42
523.49 K, 6180 kPa | 344.08
523.5 K, 4000 kPa | 346.42
